In PMC7275090, “Mode of action of teixobactins in cellular membranes” (Nature Communications, 2020):
Bridge positions count the residues as written; N and C are the ends. Square brackets hold non-standard residues; d marks the D form. Ends that are not written are not given here. d(aIle) = CC[C@H](C)[C@@H](N)C(=O)O; dNMeF = CN[C@H](Cc1ccccc1)C(=O)O

Experiments:
[1] = Pyrene excimer fluorescence of pyrene-labelled Lipid II in DOPC LUVs (oligomerisation); details: 0.5 mol% pyrene-Lipid II, pH 8.0, 20 °C
Description: The oligomerisation of fluorescent pyrene-labelled Lipid II was observed upon binding of [R4L10]-teixobactin. DOPC LUVs containing 0.5 (mol%) of pyrene-labelled Lipid II in buffer (10 mM Tris–Cl, 100 mM NaCl, pH 8.0) were prepared as described above. All fluorescence experiments were performed with a Cary Eclipse (FL0904M005) fluorometer. All samples (1.0 mL) were continuously stirred in a 10 × 4-mm quartz cuvette and kept at 20 °C. [R4L10]-teixobactin was titrated to the LUVs. Pyrene fluorescence was followed with spectral recordings between 360 and 550 nm (λex 350 nm, bandwidth 5 nm). The emission at 380 and 495 nm was recorded and averaged over 50 s, to obtain the values for the monomer and excimer intensity, respectively, to determine the excimer over monomer ratio for all conditions. […]
398, and 417 nm. Moreover, pyrene can display a characteristic fluorescence peak at longer wavelengths (490 nm), which occurs only when two pyrene rings reside within 10 Å of each other and form an excited state dimer, which known as an excimer.2 Source data are provided as a Source Data file. a) Fluorescence spectra of pyrene-labelled Lipid II symmetrically in large unilamellar vesicles (LUVs) at increasing concentrations of [R4L10]-teixobactin. […]
c) Quantification of the excimer over monomer ratio as a function of the pyrene-labelled Lipid II concentration. […]

[2] = 31P and 2D 1H31P ssNMR of pyrophosphate binding interface; details: membranes
Source text: Structural studies: To probe intermolecular contacts between ^13C,^15N-labelled [R4L10]-teixobactin molecules bound to unlabelled (^12C,^14N) Lipid II, we ran 2D ^13C^13C PARIS experiments with magnetization transfer times of 50, 300, 600, and 1000 ms at 950 MHz and 15.5 kHz MAS. To probe interfacial contacts between ^13C,^15N-labelled [R4L10]-teixobactin and ^13C,^15N-labelled Lipid II, we ran 2D ^13C^13C PARIS experiments with magnetization transfer times of 25, 50, 600, and 1000 ms at 950 MHz and 18 kHz MAS. 1D ^31P CP experiments were acquired at 500 MHz with 12 kHz MAS. The 2D ^1H^31P experiment was acquired at 800 MHz magnetic field and 60 kHz MAS using 1.75 ms CP transfer from ^1H to ^31P.
(§1) SSNMR samples: MLVs were collected by centrifugation (20,000×g) and loaded into ssNMR rotors. For 3.2 mm rotors, we used 800 nmol of antibiotic with unlabelled Lipid II or I, while we used 400 nmol with labelled Lipid II. For 1.3 mm rotors, samples contained 200 nmol of antibiotic for unlabelled Lipid II or I, while we used 100 nmol for labelled Lipid II. For all ssNMR samples, we used 4 mol%/mol Lipid II or I in the MLVs.

[3] = ssNMR 15N T1rho relaxation (dynamics of bound teixobactin), Lys-Lipid II; details: for Bulk 15N R1rho / Bulk 15N T1rho: 950 MHz, 60 kHz MAS
Description: (§2) Relaxation studies: ^1H-detected ^15N T1rho relaxation experiments were carried out at 950 and 700 MHz magnetic field, respectively, using 60 kHz MAS[51]. The ^15N transverse magnetization decay was probed with a ^15N spinlock field of 17.5 kHz. For the bulk, we measured the intensity of the most intense signal at ~8.80 ^1H ppm. T1rho trajectories were fit to single exponentials.
(§3) Lipid I or II-doped multi-laminar vesicle preparations: DOPC or DOPG lipids were mixed with Lipid I or II in 1:1 MeOH:CHCl3 at the final Lipid I or II molar ratio (0–4 mol%/mol). The mixtures were dried and the lipid films were hydrated by vortexing with 2 mL of a teixobactin solution in 40 mM phosphate, 25 mM NaCl, pH 7.0.
as §1

[4] = 2D NH and DNP ssNMR of teixobactin-Lipid II complex in native cellular membranes; type: binding, Micrococcus flavus DSM 1790
Description: 1D, 2D, and 3D ^1H-detected experiments were performed at 60 kHz MAS frequency using magnetic fields of 16.4, 18.8, and 22.2 T (700, 800, and 950 MHz ^1H-frequency) at temperatures of 305 K. All ^1H-detected experiments were dipolar-based. PISSARRO low-power decoupling[47] was used during detection periods. 2D ^13C^13C spin diffusion experiments were performed with PARISxy[48] recoupling at 950 MHz and 15.5, 17, or 18 kHz MAS frequency at 270 K temperature using mixing times of 25–1000 ms. SPINAL64[49] was used in detection periods. The 2D scalar ^13C^13C TOBSY[50] experiment was acquired at 950 MHz with 8 kHz MAS at 295 K temperature with 6 ms ^13C–^13C magnetization transfer time. Chemical shift assignments were performed using standard ^1H-detected 3D CANH and CONH experiments[36],[51] in combination with 2D ^13C^13C PARISxy[48] experiments with different magnetization transfer times (see Supplementary Tables 1 and 2). DNP-enhanced 2D ^13C^13C spin diffusion (20 ms mixing time) ssNMR experiments[52] were carried out using a 263 GHz microwave frequency, 400 MHz ^1H frequency setup (Bruker Biospin) at 100 K temperature and 8.5 kHz MAS.
Native membrane vesicle preparations were obtained from Micrococcus flavus DSM 1790[13],[16]. The amount of antibiotic was ~7.5 and 30 nmol for the 1.3 and 3.2 mm rotors, respectively. […]

[5] = ssNMR 15N T1rho relaxation (dynamics of bound teixobactin), Lys-Lipid I; details: bound to Lys-Lipid I in DOPC (Lys-LI PC), 950 MHz, 60 kHz MAS
Description: as §2, §3, §1

[6] = bound to Lys-LII in DOPC liposomes, 950 MHz/60 kHz MAS
[7] = bound to Lys-Lipid II in DOPC (Lys-LII PC)
[8] = bound to Lys-Lipid II in DOPG (Lys-LII_PG)

D-Arg4-Leu10-teixobactin ([dNMeF]IS[dR][d(aIle)]IS[dT]ALI; ester 8-C; also: 13C,15N labels at Ile2, Ser3, Ile6, Ser7 and one Ala (residue not fully stated)) [[R4L10]-teixobactin, teixobactin analogue in which D-Gln4 and L-allo-enduracididine10 are replaced by D-Arg4 and L-Leu10]
speed of Lipid II oligomerization after addition [1]: virtually immediately
coordination of Lipid II pyrophosphate [2]: directly coordinate the pyrophosphate
mobility of Lipid II-bound peptide with increasing anionic membrane charge ([3]; DOPG vs DOPC, ssNMR relaxation): stark increase in mobility
15N R1rho, Ala9 [3, 6]: 8.95 s⁻¹
15N R1rho, Ile2 [3, 6]: 8.49 s⁻¹
15N R1rho, Ile6 [3, 6]: 7.70 s⁻¹
15N R1rho, Leu10 [3, 6]: 10.67 s⁻¹
15N R1rho, Ser3 [3, 6]: 7.40 s⁻¹
15N R1rho, Ser7 [3, 6]: 6.84 s⁻¹
15N T1rho, Ala9 [3, 6]: 111.70 ms
15N T1rho, Ile2 [3, 6]: 117.80 ms
15N T1rho, Ile6 [3, 6]: 129.90 ms
15N T1rho, Leu10 [3, 6]: 93.72 ms
15N T1rho, Ser3 [3, 6]: 135.20 ms
15N T1rho, Ser7 [3, 6]: 146.10 ms
Bulk 15N R1rho [3, 7]: 9.46 s⁻¹
Bulk 15N T1rho [3, 7]: 105.70 ms
Bulk 15N R1rho [3, 8]: 29.61 s⁻¹
Bulk 15N T1rho [3, 8]: 33.77 ms
oligomerization and complex structure in natural membranes ([4]; DNP-ssNMR 2D 13C13C, M. flavus membranes vs DOPC): conserved in natural membranes
cellular 2D NH spectrum vs anionic membranes ([4]; M. flavus membranes, 7.5 nmol of drug): strongly resembled the one in anionic membranes
Bulk 15N R1rho [5]: 21.70 s⁻¹
Bulk 15N T1rho [5]: 46.09 ms
